In the NIST ThermoML archive (doi:10.1021/je030117d):

What was measured:
[1] = refractive index (Na D-line) (dimensionless); details: 298.15 K; 101.33 kPa; Liquid; Standard Abbe refractometry
[2] = Liquid; for mass density: 298.15 K, 101.33 kPa, Vibrating tube method
[3] = xn = mol fraction of the nth substance listed; details: 298.15 K, 101.33 kPa, Liquid, Vibrating tube method

CCCCC(=O)OC [methyl pentanoate]
Details	mass density [kg/m3]	refractive index
[1]	–	1.3947
[2]	884.58	–

[2]
Details	vapor or sublimation pressure [kPa]
364.75 K	32.01
365.85 K	33.33
366.98 K	34.67
368.03 K	36
369.05 K	37.33
370.1 K	38.66
371.03 K	40.01
371.97 K	41.33
372.92 K	42.66
373.81 K	43.99
374.7 K	45.33
375.56 K	46.64
376.4 K	48.01
377.18 K	49.33
378.01 K	50.64
378.82 K	51.98
379.59 K	53.33
380.33 K	54.67
381.1 K	56
381.82 K	57.33
382.51 K	58.67
383.29 K	59.99
383.95 K	61.33
384.62 K	62.68
385.25 K	63.99
385.95 K	65.33
386.57 K	66.66
387.18 K	67.99
387.84 K	69.32
388.44 K	70.66
389.08 K	71.99
389.65 K	73.33
390.24 K	74.65
390.82 K	76
391.39 K	77.3
391.94 K	78.66
392.5 K	79.99
393.04 K	81.33
393.61 K	82.66
394.12 K	83.98
394.65 K	85.33
395.16 K	86.66
395.69 K	88
396.2 K	89.33
396.7 K	90.67
397.18 K	91.98
397.67 K	93.35
398.2 K	94.67
398.65 K	95.99
399.15 K	97.32
399.59 K	98.66
400.07 K	99.99
400.54 K	101.32
401 K	102.66
401.45 K	104.01
401.91 K	105.33
402.3 K	106.66
402.75 K	107.99
403.2 K	109.32
403.62 K	110.58
404.06 K	111.98
404.45 K	113.3
404.88 K	114.66
405.31 K	115.99
405.71 K	117.32
406.12 K	118.69
406.52 K	119.98
406.91 K	121.36
407.3 K	122.64
407.7 K	124
408.08 K	125.32
408.49 K	126.67
408.85 K	127.99
409.23 K	129.32
409.62 K	130.64
409.98 K	132.01
410.35 K	133.34
410.71 K	134.64
411.07 K	135.99
411.44 K	137.33
411.8 K	138.63
412.15 K	139.99
412.49 K	141.33
412.85 K	142.67
413.21 K	143.99
413.55 K	145.32
413.89 K	146.65
414.22 K	148
414.55 K	149.34
414.91 K	150.65
415.23 K	151.99
415.57 K	153.32
415.87 K	154.61
416.21 K	155.97
416.55 K	157.29
416.87 K	158.66
417.18 K	159.97

CCCCC(=O)OC [methyl pentanoate] + CCCCCCC
[3]
Details	mass density [kg/m3]
x1 = 0.0172	682.12
x1 = 0.0613	689.72
x1 = 0.1404	703.9
x1 = 0.2074	716.09
x1 = 0.2867	731.09
x1 = 0.3552	744.33
x1 = 0.4135	755.77
x1 = 0.4931	771.88
x1 = 0.5619	786.14
x1 = 0.631	800.74
x1 = 0.7038	816.52
x1 = 0.7607	828.99
x1 = 0.8392	846.84
x1 = 0.9149	864.2
x1 = 0.9531	873.23
x1 = 0.9836	880.67

CCC(=O)OC [methyl propanoate]
Details	mass density [kg/m3]	refractive index
[1]	–	1.3745
[2]	908.59	–

Details	Normal boiling temperature [°C]
[2], Ebulliometric method (Recirculating still)	78.50

CCC(=O)OC [methyl propanoate] + CCCCCCC
[3]
Details	mass density [kg/m3]
x1 = 0.064	687.65
x1 = 0.1117	694.35
x1 = 0.1561	700.97
x1 = 0.2628	718.15
x1 = 0.365	736.5
x1 = 0.4343	750.1
x1 = 0.5113	766.46
x1 = 0.5683	779.43
x1 = 0.6351	795.65
x1 = 0.7017	812.9
x1 = 0.7543	827.61
x1 = 0.8136	845.12
x1 = 0.8664	861.73
x1 = 0.903	873.85
x1 = 0.9689	896.98
